Tests used:
Mu-type opioid receptor = Mu-type opioid receptor (Homo sapiens, UniProt P35372)
[1] = molecular target: T1, Equilibrative nucleoside transporter 1 (Homo sapiens, UniProt Q99808)
T1 sequence (Q99808 whole entry): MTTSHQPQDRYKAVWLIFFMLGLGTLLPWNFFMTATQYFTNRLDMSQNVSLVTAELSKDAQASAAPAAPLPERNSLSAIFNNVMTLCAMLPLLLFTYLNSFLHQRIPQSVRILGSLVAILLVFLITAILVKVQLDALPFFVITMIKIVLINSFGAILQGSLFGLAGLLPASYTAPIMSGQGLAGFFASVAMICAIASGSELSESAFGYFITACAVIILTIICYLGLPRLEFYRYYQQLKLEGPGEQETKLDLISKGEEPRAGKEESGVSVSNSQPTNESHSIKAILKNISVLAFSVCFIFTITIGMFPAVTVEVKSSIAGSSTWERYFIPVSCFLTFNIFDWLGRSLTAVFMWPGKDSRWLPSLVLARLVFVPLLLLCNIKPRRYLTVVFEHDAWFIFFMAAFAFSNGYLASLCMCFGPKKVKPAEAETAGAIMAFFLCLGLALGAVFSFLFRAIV

[2] = molecular target: T2, Cholecystokinin receptor type A (Homo sapiens, UniProt P32238)
T2 sequence (P32238 whole entry): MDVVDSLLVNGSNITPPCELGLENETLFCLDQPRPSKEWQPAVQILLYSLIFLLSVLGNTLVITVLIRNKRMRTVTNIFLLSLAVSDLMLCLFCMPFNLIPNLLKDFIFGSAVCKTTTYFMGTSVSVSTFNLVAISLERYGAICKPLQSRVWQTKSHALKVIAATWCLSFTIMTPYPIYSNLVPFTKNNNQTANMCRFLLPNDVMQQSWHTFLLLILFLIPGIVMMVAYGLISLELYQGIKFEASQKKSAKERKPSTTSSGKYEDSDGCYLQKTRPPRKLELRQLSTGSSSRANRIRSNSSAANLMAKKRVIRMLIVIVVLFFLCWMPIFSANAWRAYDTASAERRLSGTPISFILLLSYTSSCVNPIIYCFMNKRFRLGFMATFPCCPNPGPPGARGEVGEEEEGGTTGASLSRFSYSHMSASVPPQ

Adenosine receptor A1 = molecular target: T3, Adenosine receptor A1 (Homo sapiens, UniProt P30542)
T3 sequence (P30542 whole entry): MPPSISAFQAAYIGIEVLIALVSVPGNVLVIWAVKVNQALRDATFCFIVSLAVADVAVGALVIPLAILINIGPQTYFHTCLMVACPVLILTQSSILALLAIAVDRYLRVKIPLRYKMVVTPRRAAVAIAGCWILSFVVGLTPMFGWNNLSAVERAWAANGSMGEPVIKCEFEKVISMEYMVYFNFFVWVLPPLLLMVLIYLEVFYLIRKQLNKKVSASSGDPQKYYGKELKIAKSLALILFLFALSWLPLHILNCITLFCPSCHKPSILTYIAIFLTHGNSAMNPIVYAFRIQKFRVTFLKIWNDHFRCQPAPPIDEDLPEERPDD

[3] = molecular target: Beta-1 adrenergic receptor (Homo sapiens, UniProt P08588); type: functional
[4] = molecular target: Voltage-gated inwardly rectifying potassium channel KCNH2 (Homo sapiens, UniProt Q12809); type: functional; settings: read-out: AC50
[5] = molecular target: T4, Type-1 angiotensin II receptor (Homo sapiens, UniProt P30556)
T4 sequence (P30556 whole entry): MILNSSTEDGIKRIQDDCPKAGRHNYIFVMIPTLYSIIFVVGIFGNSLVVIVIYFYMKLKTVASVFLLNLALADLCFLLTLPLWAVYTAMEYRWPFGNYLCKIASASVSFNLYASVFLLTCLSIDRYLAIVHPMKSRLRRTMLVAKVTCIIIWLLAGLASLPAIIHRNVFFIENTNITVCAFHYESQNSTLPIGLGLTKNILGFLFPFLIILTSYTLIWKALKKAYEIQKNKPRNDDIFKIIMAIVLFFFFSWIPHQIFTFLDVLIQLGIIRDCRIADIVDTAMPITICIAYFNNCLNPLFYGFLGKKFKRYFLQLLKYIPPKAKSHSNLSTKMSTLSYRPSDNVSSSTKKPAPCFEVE

Cannabinoid receptor 1 = Cannabinoid receptor 1 (Homo sapiens, UniProt P21554); type: functional, cell-based
[6] = molecular target: T5, Alpha-1A adrenergic receptor (Homo sapiens, UniProt P35348); type: functional, cell-based
T5 sequence (P35348 whole entry): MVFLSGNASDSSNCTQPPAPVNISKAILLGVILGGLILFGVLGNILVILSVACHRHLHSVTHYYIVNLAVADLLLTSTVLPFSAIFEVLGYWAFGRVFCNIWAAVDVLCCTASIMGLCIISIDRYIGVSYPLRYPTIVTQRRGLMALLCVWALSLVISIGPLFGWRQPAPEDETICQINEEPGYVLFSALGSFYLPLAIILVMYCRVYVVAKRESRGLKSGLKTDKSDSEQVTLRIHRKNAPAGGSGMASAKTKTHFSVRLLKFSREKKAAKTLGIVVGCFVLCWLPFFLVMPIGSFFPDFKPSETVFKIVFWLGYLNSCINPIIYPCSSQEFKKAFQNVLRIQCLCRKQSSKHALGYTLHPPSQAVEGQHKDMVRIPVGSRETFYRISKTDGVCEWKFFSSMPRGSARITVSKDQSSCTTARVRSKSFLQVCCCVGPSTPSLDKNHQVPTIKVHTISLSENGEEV

[7] = molecular target: T6, Alpha-2B adrenergic receptor (Homo sapiens, UniProt P18089)
T6 sequence (P18089 whole entry): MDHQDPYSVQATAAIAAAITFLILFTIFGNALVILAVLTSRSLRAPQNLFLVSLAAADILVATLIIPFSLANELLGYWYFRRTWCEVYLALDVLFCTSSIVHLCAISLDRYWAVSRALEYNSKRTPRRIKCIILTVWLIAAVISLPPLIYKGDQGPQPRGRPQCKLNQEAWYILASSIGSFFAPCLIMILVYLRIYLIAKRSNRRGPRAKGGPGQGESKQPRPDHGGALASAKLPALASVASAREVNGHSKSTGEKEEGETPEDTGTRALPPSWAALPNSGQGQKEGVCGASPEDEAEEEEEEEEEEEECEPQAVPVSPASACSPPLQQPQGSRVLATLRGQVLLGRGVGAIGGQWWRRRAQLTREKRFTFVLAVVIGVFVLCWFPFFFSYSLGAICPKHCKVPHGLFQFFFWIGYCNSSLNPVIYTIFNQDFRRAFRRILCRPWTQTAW
Note: assay procedure not described here.

Sequence of Cannabinoid receptor 1 (P21554 whole entry): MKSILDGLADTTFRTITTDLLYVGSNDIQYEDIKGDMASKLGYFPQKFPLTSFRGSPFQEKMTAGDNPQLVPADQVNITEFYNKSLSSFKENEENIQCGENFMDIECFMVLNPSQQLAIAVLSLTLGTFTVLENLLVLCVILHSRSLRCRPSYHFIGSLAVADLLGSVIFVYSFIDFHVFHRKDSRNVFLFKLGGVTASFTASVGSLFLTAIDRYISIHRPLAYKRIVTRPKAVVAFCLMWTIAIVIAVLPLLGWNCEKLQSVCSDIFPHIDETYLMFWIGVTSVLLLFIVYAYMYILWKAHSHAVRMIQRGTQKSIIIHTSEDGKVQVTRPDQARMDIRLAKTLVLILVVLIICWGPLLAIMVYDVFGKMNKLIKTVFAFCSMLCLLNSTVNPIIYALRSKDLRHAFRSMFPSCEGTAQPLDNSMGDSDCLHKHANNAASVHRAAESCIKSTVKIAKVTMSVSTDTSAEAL
Sequence of Mu-type opioid receptor (P35372 whole entry): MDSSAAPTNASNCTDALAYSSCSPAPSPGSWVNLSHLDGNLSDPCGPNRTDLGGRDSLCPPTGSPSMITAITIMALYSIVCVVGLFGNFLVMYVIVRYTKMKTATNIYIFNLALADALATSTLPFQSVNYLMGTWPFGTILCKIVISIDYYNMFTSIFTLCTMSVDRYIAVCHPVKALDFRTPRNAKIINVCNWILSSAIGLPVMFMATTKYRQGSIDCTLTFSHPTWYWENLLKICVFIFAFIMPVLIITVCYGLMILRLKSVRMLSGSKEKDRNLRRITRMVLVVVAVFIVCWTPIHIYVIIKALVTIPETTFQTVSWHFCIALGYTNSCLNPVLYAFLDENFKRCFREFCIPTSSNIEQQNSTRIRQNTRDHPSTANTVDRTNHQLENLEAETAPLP
Sequence of Voltage-gated inwardly rectifying potassium channel KCNH2 (Q12809 whole entry): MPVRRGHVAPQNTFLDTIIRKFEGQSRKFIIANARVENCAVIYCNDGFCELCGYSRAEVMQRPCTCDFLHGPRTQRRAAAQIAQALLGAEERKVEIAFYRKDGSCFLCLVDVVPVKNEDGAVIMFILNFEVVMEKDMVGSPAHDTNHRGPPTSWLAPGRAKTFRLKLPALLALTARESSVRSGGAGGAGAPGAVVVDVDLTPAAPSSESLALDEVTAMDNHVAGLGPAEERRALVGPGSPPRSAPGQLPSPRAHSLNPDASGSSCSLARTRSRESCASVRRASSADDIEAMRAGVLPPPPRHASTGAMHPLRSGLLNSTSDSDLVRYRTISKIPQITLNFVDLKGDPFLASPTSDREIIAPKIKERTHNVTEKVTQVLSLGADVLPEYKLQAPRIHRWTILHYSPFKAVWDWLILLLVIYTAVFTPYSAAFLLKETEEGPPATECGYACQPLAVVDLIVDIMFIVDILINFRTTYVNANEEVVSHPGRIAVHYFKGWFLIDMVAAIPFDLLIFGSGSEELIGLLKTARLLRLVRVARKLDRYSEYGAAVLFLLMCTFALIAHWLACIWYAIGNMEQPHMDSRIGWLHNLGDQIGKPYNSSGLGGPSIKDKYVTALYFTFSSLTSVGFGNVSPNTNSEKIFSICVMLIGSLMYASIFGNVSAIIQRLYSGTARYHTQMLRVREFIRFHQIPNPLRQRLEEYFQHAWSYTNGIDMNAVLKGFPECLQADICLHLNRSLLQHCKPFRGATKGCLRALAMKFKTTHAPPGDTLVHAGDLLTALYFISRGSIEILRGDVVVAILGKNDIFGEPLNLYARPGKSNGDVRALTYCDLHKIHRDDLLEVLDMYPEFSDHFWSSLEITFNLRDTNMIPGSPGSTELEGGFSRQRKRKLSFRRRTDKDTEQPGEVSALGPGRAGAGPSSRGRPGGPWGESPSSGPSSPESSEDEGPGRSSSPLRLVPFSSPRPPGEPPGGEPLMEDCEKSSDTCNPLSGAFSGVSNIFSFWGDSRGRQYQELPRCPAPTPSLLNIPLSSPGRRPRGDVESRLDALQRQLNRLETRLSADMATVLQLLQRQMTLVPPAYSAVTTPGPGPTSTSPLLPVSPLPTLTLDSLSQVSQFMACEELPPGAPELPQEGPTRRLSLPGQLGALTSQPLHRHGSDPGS
Sequence of Beta-1 adrenergic receptor (P08588 whole entry): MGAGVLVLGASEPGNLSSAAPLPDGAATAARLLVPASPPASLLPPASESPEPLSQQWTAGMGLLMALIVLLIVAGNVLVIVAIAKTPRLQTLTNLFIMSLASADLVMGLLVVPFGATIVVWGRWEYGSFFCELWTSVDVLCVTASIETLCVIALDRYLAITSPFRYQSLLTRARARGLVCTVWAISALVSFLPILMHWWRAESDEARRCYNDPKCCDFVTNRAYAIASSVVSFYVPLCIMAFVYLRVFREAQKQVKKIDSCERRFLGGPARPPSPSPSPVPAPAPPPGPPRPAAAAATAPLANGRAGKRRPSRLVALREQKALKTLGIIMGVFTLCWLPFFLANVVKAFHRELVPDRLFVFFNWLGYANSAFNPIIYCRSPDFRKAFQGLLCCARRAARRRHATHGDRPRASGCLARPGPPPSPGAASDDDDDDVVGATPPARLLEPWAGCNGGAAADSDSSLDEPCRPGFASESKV

SMILES	AC50 (Mu-type opioid receptor) [µM]	AC50 [1] [µM]	AC50 [2] [µM]	AC50 (Adenosine receptor A1) [µM]	AC50 [3] [µM]	AC50 [4] [µM]	AC50 [5] [µM]	AC50 (Cannabinoid receptor 1) [µM]	AC50 [6] [µM]	AC50 [7] [µM]
C[C@@H](Cc1ccccc1)N(C)Cc1ccccc1 [BENZPHETAMINE]	> 30	> 30	> 10	> 10	> 10	14.5	> 30	> 30	13	2.8
CC(C(=O)O)c1ccc(C(=O)c2ccccc2)s1 (stereo not given) [TIAPROFENIC ACID]	> 30	> 10	> 10	> 10	> 10	9.26	> 10	> 30	> 30	> 10
Oc1cc(O)c2c(c1)O[C@H](c1ccc(O)c(O)c1)[C@@H](O)C2 [CIANIDANOL]	> 30	> 30	> 30	> 30	> 10	> 30	> 30	> 30	> 30	> 10
COC(=O)[C@H]1[C@H]2C[C@@H]3c4[nH]c5ccccc5c4CCN3C[C@H]2C[C@@H](OC(=O)c2cc(OC)c(OC)c(OC)c2)[C@@H]1OC [DESERPIDINE]	8.3	> 10	34.4	> 30	> 10	2.45	> 10	–	–	> 10
CCCCCCOC(=O)NC(=N)c1ccc(NCc2nc3cc(C(=O)N(CCC(=O)OCC)c4ccccn4)ccc3n2C)cc1 [DABIGATRAN ETEXILATE]	> 30	> 30	> 30	> 30	> 30	–	7.7	> 30	> 30	> 30
CN(C)CCOC(=O)C(c1ccccc1)C1(O)CCCC1 (stereo not given) [CYCLOPENTOLATE]	> 30	> 30	> 10	> 10	> 10	> 30	> 10	–	–	> 10
CCOC(=O)O[C@]1(C(=O)COC(=O)CC)CC[C@H]2[C@@H]3CCC4=CC(=O)C=C[C@]4(C)[C@H]3[C@@H](O)C[C@@]21C [PREDNICARBATE]	> 30	> 10	> 10	> 10	> 10	> 30	> 10	–	–	> 10
CC1NCCOC1c1ccccc1 (stereo not given) [PHENMETRAZINE]	> 30	> 30	> 30	> 30	> 10	> 30	> 30	> 30	–	> 10
CC(=O)OCC1=C(C(=O)O)N2C(=O)[C@@H](NC(=O)CSc3ccncc3)[C@H]2SC1 [CEPHAPIRIN]	> 30	> 10	> 10	> 10	> 10	> 30	> 10	–	–	> 10
